Reference: paper PMC9995496, “A screen for MeCP2-TBL1 interaction inhibitors using a luminescence-based assay” (Scientific Reports, 2023)

Molecular target: T1, MeCP2-TBL1 interaction (MeCP2-SmBiT / TBL1-LgBiT) (Mus musculus, UniProt Q9QXE7)
T1 construct: expressed in transfected cells; crude lysate used as a cell-free assay
T1 sequence (Q9QXE7 166-527): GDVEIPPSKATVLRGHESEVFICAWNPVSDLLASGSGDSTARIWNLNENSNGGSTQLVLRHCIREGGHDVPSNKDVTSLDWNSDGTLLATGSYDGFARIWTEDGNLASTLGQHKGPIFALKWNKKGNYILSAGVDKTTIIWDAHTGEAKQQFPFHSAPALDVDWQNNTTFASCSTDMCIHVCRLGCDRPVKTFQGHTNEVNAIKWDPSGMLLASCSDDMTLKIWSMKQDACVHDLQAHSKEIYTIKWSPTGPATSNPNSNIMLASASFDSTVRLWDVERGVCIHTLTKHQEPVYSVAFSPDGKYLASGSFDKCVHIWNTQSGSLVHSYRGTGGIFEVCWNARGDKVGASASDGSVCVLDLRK
Test: MeCP2-TBL1 NanoLuc luciferase complementation assay (cell-free, extracts of transfected HEK293 cells);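 also: each compound tested at 20 µM final concentration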
Assay type: binding, human
In short: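 Cell-free split NanoLuc: lysate of HEK293 cells co-expressing the MeCP2 C-terminal half-SmBiT and TBL1 WD domain-LgBiT, mixed 1:1 with furimazine. After 30 min at room temperature, luminescence was plate-median normalized.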

[1] = primary screen of the Asinex library, sheet "Sargen output Asinex library", one well per compound
[2] = primary screen of Asinex library, single well per compound
[3] = primary screen of the Asinex library, sheet "Sargen output Asinex library", one well per compound, Batch Ref. 1

Row | SMILES | Inhibition percent [1] | Inhibition percent [2] | other results
1 | Cc1cc(Oc2ccc(F)cc2)nc(C2CCCN(C(=O)c3cccc(Cn4ccnc4)c3)C2)n1 (stereo not drawn) [BDH_32361331] | 1.28% |  | 
2 | Cc1cccc(Cc2cccc(C3CCCN(C(=O)c4ccnc(N5CCOCC5)c4)C3)n2)c1 (stereo not drawn) [BDH_32361750] | -1.55% |  | 
3 | CC1(C(=O)N2CCOCC(Cc3ccc4cnccc4c3)C2)CCN(CCc2ccccc2)CC1 (stereo not drawn) [BDH_32362344] | -0.71% |  | 
4 | CC1(C(=O)N2CCOCC(Cc3ccc4ccncc4c3)C2)CCN(CCc2ccccc2)CC1 (stereo not drawn) [BDH_32362347] | -4.04% |  | 
5 | C[C@]12C[C@@H](c3ccc(F)cc3)N(C(=O)c3cccc(Oc4ncccn4)c3)[C@H]1CCCCC(=O)N2 [BDH_32362535] |  | -1.66 | 
6 | COc1ccc(Oc2cncc(C3CCN(C(=O)C4(c5ccccc5)CCOCC4)CC3)n2)cc1 [BDH_32362557] |  |  | Inhibition percent [3]: 3.43%
7 | Cc1cccc(Cc2cccc(C3CCCN(C(=O)c4ccnc(-c5cnn(C)c5)c4)C3)n2)c1 (stereo not drawn) [BDH_32362596] | 2.04% |  | 
8 | Cc1ccc(C(=O)N2CCC3(CC2)COC(Cc2cccc(F)c2)C3)cc1NCc1ccccn1 (stereo not drawn) [BDH_32362747] |  | 0.11 | 
9 | Cc1cc(C(=O)N2CCC(Cc3cccc4cccnc34)CC2)nc(C2(C)CCN(C)CC2)n1 [BDH_32363559] |  | -3.40 | 
10 | O=C(c1ccccc1Cn1ccnc1)N1CCCC(c2cccc(Cc3ccc(F)cc3)n2)C1 (stereo not drawn) [BDH_32363926] |  |  | Inhibition percent [3]: 1.46%
11 | O=C(c1cccc(Oc2ncccn2)c1)N1CC[C@H]2[C@H]1CCCCC(=O)N2Cc1ccccc1 [BDH_32363931] | -2.83% |  | 
12 | O=C(c1cccc(Nc2ncccn2)c1)N1CCC2(CC1)COC(Cc1cccc(F)c1)C2 (stereo not drawn) [BDH_32363979] |  | 9.41 | 
13 | Cc1c(C(=O)N2CCC(O)(CN3CCN(c4ccccc4)CC3)C2)cccc1N1CCOCC1 (stereo not drawn) [BDH_32364008] | -0.54% |  | 
14 | Cc1nccn1Cc1ccccc1C(=O)N1CCCC(c2cncc(Oc3ccccc3)n2)C1 (stereo not drawn) [BDH_32364323] | -2.15% |  | 
15 | Cc1nc(N(C)C)cc(C2(C)CCCN(C(=O)c3ccc(Cl)c(N4CCOCC4)c3)C2)n1 (stereo not drawn) [BDH_32364491] |  |  | Inhibition percent [3]: -1.79%
16 | Cc1cc(Oc2ccc(F)cc2)nc(C2CCCCN2C(=O)c2cccc(-n3cnnc3)c2)n1 (stereo not drawn) [BDH_32364593] |  | -1.56 | 
17 | COc1ccccc1Oc1cccc(C2CCN(C(=O)c3ccnc(N4CCOCC4)c3)CC2)n1 [BDH_32364726] |  |  | Inhibition percent [3]: 2.70%
18 | Cc1cc(Oc2ccc(F)cc2)nc(C2CCCCN2C(=O)c2ccnc(-c3cncnc3)c2)n1 (stereo not drawn) [BDH_32364851] | -4.83% |  | 
19 | Cc1cc(Oc2ccc(F)cc2)nc(C2CCCCN2C(=O)c2cccc(-c3cncnc3)n2)n1 (stereo not drawn) [BDH_32364853] |  | -0.96 | 
20 | CC(=O)N[C@@]12CN(C)CC[C@@H]1[C@@H](c1ccccc1)N(C(=O)c1cccc(-n3nc(C)cc3C)c1)C2 [BDH_32365020] |  | -3.43 | 
21 | Cn1cc(-c2cccc(C(=O)N3CCC(c4cccc(Cc5ccc(F)cc5)n4)CC3)n2)cn1 [BDH_32365359] | 2.72% |  | 
22 | Cn1cc(-c2cccc(C(=O)N3CCCC(c4cccc(Cc5ccc(F)cc5)n4)C3)n2)cn1 (stereo not drawn) [BDH_32365360] | 7.56% |  | 
23 | Cn1cc(-c2ccc(C(=O)N3CCCC(c4cccc(Cc5ccc(F)cc5)n4)C3)cn2)cn1 (stereo not drawn) [BDH_32365364] |  |  | Inhibition percent [3]: 4.12%
24 | COc1cccc(Nc2ncccc2C(=O)N2CCOCC(Cc3nccn4cccc34)C2)c1 (stereo not drawn) [BDH_32366009] |  |  | Inhibition percent [3]: -5.94%
25 | Cn1cc(-c2cc(C(=O)N3CCC(c4cncc(-c5cccc(Cl)c5)n4)CC3)ccn2)cn1 [BDH_32366963] |  |  | Inhibition percent [3]: 1.59%
26 | O=C1CCCN1CCOc1cccc(C(=O)N2C3CCC2CC(Cc2cnc4[nH]ccc4c2)C3)c1 (stereo not drawn) [BDH_32367285] |  |  | Inhibition percent [3]: -0.20%
27 | Cc1ccc(C2(C(=O)N3CCC(CC(=O)Nc4ccc5nccnc5c4)CC3)CCOCC2)cc1 [BDH_32368328] |  |  | Inhibition percent [3]: -1.52%
28 | Cc1cc(Oc2ccccc2F)nc(C2CCN(C(=O)c3cccc(-c4cncnc4)n3)CC2)n1 [BDH_32368986] |  |  | Inhibition percent [3]: 1.94%
29 | CC1(C(=O)N2CCOCC(Cc3ccc4ncccc4c3)C2)CCN(C(=O)c2ccccc2)CC1 (stereo not drawn) [BDH_32372082] |  |  | Inhibition percent [3]: 0.77%

Second part, led by results:

Row | Inhibition percent [1] | Inhibition percent [2] | SMILES | other results
30 |  | -1.97 | CN1CCN(c2cc(C(=O)N3CCC(O)(CN4CCN(c5ccccc5)CC4)C3)ccn2)CC1 (stereo not drawn) [BDH_32365527] | 
31 | -5.24% |  | COc1cccc(Oc2cc(C)nc(C3CCCCN3C(=O)c3cccc(-n4cnnc4)c3)n2)c1 (stereo not drawn) [BDH_32365761] | 
32 |  | 0.18 | Cc1cc(Oc2ccccc2F)nc(C2CCCCN2C(=O)c2ccnc(-c3cncnc3)c2)n1 (stereo not drawn) [BDH_32366371] | 
33 | 4.29% |  | Cc1cc(CC2CCN(C(=O)C3(C)CCN(C(=O)Cc4cccc(F)c4)CC3)CC2)ccn1 [BDH_32366782] | 
34 |  | -1.96 | Cc1cccc(Cc2cccc(C3CCCN(C(=O)c4ccnc(-c5cncnc5)c4)C3)n2)c1 (stereo not drawn) [BDH_32367369] | 
35 | -3.64% |  | CC(=O)N[C@@]12CN(C)CC[C@@H]1[C@@H](c1ccccc1)N(C(=O)c1cccc(Oc3ncccn3)c1)C2 [BDH_32367667] | 
36 |  | 2.91 | CC(C)(NC(=O)Cc1cccc(F)c1)C(=O)N1CCCC2(CC1)CN(c1ccccc1)C(=O)O2 (stereo not drawn) [BDH_32367867] | 
37 | -2.06% |  | Cc1cc(Oc2ccc(F)cc2)nc(C2CCN(C(=O)c3cncc(-c4cncnc4)c3)CC2)n1 [BDH_32369058] | 
38 |  | -2.67 | CC(=O)N1CCC(Cc2ccc(F)cc2)(C(=O)N2CCCC(Cc3cccc(C)n3)C2)CC1 (stereo not drawn) [BDH_32369388] | 
39 |  | -4.84 | O=C(c1cccc(Oc2ncccn2)c1)N1CCCC2(CC1)CN(c1cccc(F)c1)C(=O)O2 (stereo not drawn) [BDH_32369515] | 
40 |  | -2.43 | COc1ccccc1Oc1cccc(C2CCN(C(=O)c3ccc(-c4cncnc4)nc3)CC2)n1 [BDH_32370065] | 
41 | 0.98% |  | Cc1cc(Oc2ccccc2F)nc(C2CCN(C(=O)c3cncc(-c4cncnc4)c3)CC2)n1 [BDH_32370406] | 
42 | -3.96% |  | Cc1nccn1Cc1cccc(C(=O)N2[C@H](Cc3ccccc3)C[C@]3(C)NC(=O)CCC[C@H]23)c1 [BDH_32370660] | 
43 |  | -3.09 | CNC(=O)C1CN(C(=O)C2(C)CCN(C(=O)c3ccccc3)CC2)CCN1Cc1ccccc1 (stereo not drawn) [BDH_32370904] | 
44 | -1.73% |  | O=C1OC2(CCCN(C(=O)c3ccnc(N4CCOCC4)c3)CC2)CN1CCc1ccccc1 (stereo not drawn) [BDH_32370969] | 
45 | 4.95% |  | CNC(=O)c1cc(C)nc(C2(C)CCN(C(=O)c3ccc(C)c(NCc4ccccn4)c3)CC2)n1 [BDH_32371078] | 
46 |  | -3.76 | Cc1ccc(C(=O)N2C[C@@H](c3ccc(F)cc3)[C@@]3(CCCC(=O)N3)C2)cc1NCc1ccccn1 [BDH_32371225] | 
47 | 1.17% |  | COc1ccc(C(=O)N2CCCC(Cc3cn4ccnc4cn3)CC2)cc1OCc1ccccn1 (stereo not drawn) [BDH_32371251] | 
48 |  | 8.79 | CN1C(=O)C2(CCN(C(=O)c3cccc(Nc4ncccn4)c3)CC2)CC1Cc1ccc(F)cc1 (stereo not drawn) [BDH_32371589] | 
49 |  | -2.75 | O=C1COC2(CCCN(C(=O)c3ccccc3Cn3ccnc3)CC2)CN1CCc1ccccc1 (stereo not drawn) [BDH_32371928] | 
50 | -4.00% |  | O=C(c1ccccc1CN1CCOCC1)N1CCOCC(Cc2ccc3ccncc3c2)C1 (stereo not drawn) [BDH_32372076] | 
51 | -1.24% |  | COc1ccc(C2(C(=O)N3CCC4(CC3)CC(Oc3ccccc3F)CO4)CCOCC2)cc1 (stereo not drawn) [BDH_32372513] | 
